Structures can show the parent of a compound that is named as a salt.
Biological target: human GPR40 (Homo sapiens, UniProt O14842)
Test: FDSS-based intracellular calcium assay (Human GRP40 in vitro assay)
Assay type: cell-based
Design: 3xFLAG; expressed in transfected cells
Conditions: cells expressing GPR40, intracellular Ca2+ response, FDSS reader; read-out: hGPR40 EC50
Outline: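 GPR40-expressing cells, plated overnight in serum-free phenol red-free DMEM, loaded with Fluo-3 in HBSS with 1.7 mM probenecid for 30 min at 37° C. Compounds in DMSO, diluted in assay buffer, added as 3× solutions; intracellular Ca^2+ response read on FDSS.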

human GPR40, sequence (O14842 whole entry): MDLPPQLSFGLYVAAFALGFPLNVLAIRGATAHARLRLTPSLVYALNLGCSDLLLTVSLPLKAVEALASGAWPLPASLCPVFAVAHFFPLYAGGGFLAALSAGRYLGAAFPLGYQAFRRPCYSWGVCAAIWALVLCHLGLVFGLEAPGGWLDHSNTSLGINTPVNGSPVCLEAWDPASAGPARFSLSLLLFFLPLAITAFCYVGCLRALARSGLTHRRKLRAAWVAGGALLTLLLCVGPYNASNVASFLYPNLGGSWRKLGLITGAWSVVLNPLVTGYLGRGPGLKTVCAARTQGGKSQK

Row | Structure (SMILES) | EC50 [nM]
1 | COc1cc(N2CCC(Oc3ccc(N4C[C@H](OC)[C@@H](C)[C@@H]4CC(=O)O)cn3)CC2)c(C2CCCC2(C)C)cn1 (single isomer, unassigned) [Example 151, Isomer 2, HCl] | 140
2 | COc1cc(N2CCC(Oc3ccc(N4C[C@H](F)[C@@H](C)[C@@H]4CC(=O)O)cc3)C(C)C2)c(Cl)cn1 (some centres unmarked) [Example 145] | 26
3 | O=C(O)C[C@H]1C[C@@H](C(F)(F)F)CN1c1ccc(OC2CCN(c3ccccc3)CC2)cc1 [Example 22, 2-((2R,4R)-1-(4-((l-Phenylpiperidin-4-yl)oxy)phenyl)-4-(trifluoromethyl)pyrrolidin-2-yl)acetic acid, HCl] | 1800
4 | CCOc1ccc(F)c(N2CCC(Oc3ccc(N4C[C@H](Oc5cccc(C(F)(F)F)c5)C[C@@H]4CC(=O)O)cc3)CC2)c1 [Example 71, 2-((2R,4R)-1-(4-(1-(5-Ethoxy-2-fluorophenyl)piperidin-4-yloxy)phenyl)-4-(3-(trifluoromethyl)phenoxy)pyrrolidin-2-yl)acetic acid] | 250
5 | COc1cc(N2CCC(Oc3ccc(N4C[C@H](C(F)(F)F)C[C@@H]4CC(=O)O)cc3Cl)C(C)C2)c(Cl)cn1 (stereo partly drawn) [Example 136, 2-((2R,4R)-1-(3-Chloro-4-(((3,4-trans)-1-(5-chloro-2-methoxypyridin-4-yl)-3-methylpiperidin-4-yl)oxy)phenyl)-4-(trifluoromethyl)pyrrolidin-2-yl)acetic acid] | 500
6 | CCOc1ccc(F)c(N2CCC(Oc3ccc(N4C[C@H](C(F)(F)F)C[C@@H]4CC(=O)O)cc3)C(CC(C)C)C2)c1 (single isomer, unassigned) [Example 35, Isomer 1, HCl] | 1800
7 | COc1cc(N2CCC(Oc3ccc(N4C[C@H](OC)[C@@H](C)[C@@H]4CC(=O)O)c(F)c3)C(C)C2)c(Cl)cn1 (stereo partly drawn) [Example 111, 2-((2S,3S,4R)-1-(4-(((3,4-trans)-1-(5-Chloro-2-methoxypyridin-4-yl)-3-methylpiperidin-4-yl)oxy)-2-fluorophenyl)-4-methoxy-3-methylpyrrolidin-2-yl)acetic acid] | 110
8 | CCOc1ccc(F)c(N2CCC(Oc3ccc(N4C[C@H](Oc5ccccn5)C[C@@H]4CC(=O)O)cc3)CC2)c1 [Example 75, 2-((2R,4R)-1-(4-(1-(5-Ethoxy-2-fluorophenyl)piperidin-4-yloxy)phenyl)-4-(pyridin-2-yloxy)pyrrolidin-2-yl)acetic acid, TFA] | 420
9 | CCOc1ccc(F)c(N2CCC(Oc3ccc(N4C[C@H](OC)[C@@H](C5CCC5)[C@@H]4CC(=O)O)cc3)CC2)c1 [Example 92, 2-((2S,3S,4R)-3-Cyclobutyl-1-(4-((1-(5-ethoxy-2-fluorophenyl)piperidin-4-yl)oxy)phenyl)-4-methoxypyrrolidin-2-yl)acetic acid, TFA] | 3700
10 | CCOc1ccc(F)c(N2CCC(Oc3ccc(N4C[C@H](Oc5cccc(OC(F)(F)F)c5)C[C@@H]4CC(=O)O)cc3)CC2)c1 [Example 77, 2-((2R,4R)-1-(4-(1-(5-Ethoxy-2-fluorophenyl)piperidin-4-yloxy)phenyl)-4-(3-(trifluoromethoxy)phenoxy)pyrrolidin-2-yl)acetic acid] | 140
11 | CCOc1ccc(F)c(N2CCC(Oc3ccc(N4C[C@H](Oc5ccc(Cl)cc5)C[C@@H]4CC(=O)O)cc3)CC2)c1 [Example 73, 2-((2R,4R)-4-(4-Chlorophenoxy)-1-(4-(1-(5-ethoxy-2-fluorophenyl)piperidin-4-yloxy)phenyl)pyrrolidin-2-yl)acetic acid] | 1600
12 | COCC1CN(c2cc(OC)ncc2Cl)CCC1Oc1ccc(N2C[C@H](C(F)(F)F)C[C@@H]2CC(=O)O)cc1 (single isomer, unassigned) [Example 172, Isomer 1, TFA] | 1800
13 | COc1ccc(F)c(N2CCC(Oc3ccc(N4C[C@H](OC)C[C@@H]4CC(=O)O)cc3)C(C)C2)c1 (single isomer, unassigned) [Example 17, Isomer 1] | 340
14 | COc1ccc(C2CCC2)c(N2CCC(Oc3ccc(N4C[C@H](OC)C[C@@H]4CC(=O)O)cc3)CC2)c1 [Example 82, 2-((2R,4R)-1-(4-((1-(2-Cyclobutyl-5-methoxyphenyl)piperidin-4-yl)oxy)phenyl)-4-methoxypyrrolidin-2-yl)acetic acid, HCl] | 310

Further compounds by falling EC50, results first:

Row | EC50 [nM] | Structure (SMILES)
15 | 4600 | CCOc1ccc(F)c(N2CCC(Oc3ccc(N4C[C@H](N(C)S(=O)(=O)c5ccccc5)C[C@@H]4CC(=O)O)cc3)CC2)c1 [Example 80, 2-((2R,4R)-1-(4-(1-(5-Ethoxy-2-fluorophenyl)piperidin-4-yloxy)phenyl)-4-(N-methylphenylsulfonamido)pyrrolidin-2-yl)acetic acid, TFA]
16 | 740 | CCOc1ccc(F)c(N2CCC(Oc3ccc(N4C[C@H](Oc5ccccc5Cl)C[C@@H]4CC(=O)O)cc3)CC2)c1 [Example 79, 2-((2R,4R)-4-(2-Chlorophenoxy)-1-(4-(1-(5-ethoxy-2-fluorophenyl)piperidin-4-yloxy)phenyl)pyrrolidin-2-yl)acetic acid]
17 | 420 | COc1ccc(F)c(N2CCC(Oc3ccc(N4C[C@H](Cc5ccccc5)C[C@H]4CC(=O)O)cc3)CC2)c1 [Example 8, 2-((2S,4R)-4-Benzyl-1-(4-((1-(2-fluoro-5-methoxyphenyl)piperidin-4-yl)oxy)phenyl)pyrrolidin-2-yl)acetic acid, HCl]
18 | 320 | CCOc1ccc(F)c(N2CCC(Oc3ccc(N4C[C@H](OC)[C@@H](C)[C@@H]4CC(=O)O)c(F)c3)CC2)c1 [Example 114, 2-((2S,3S,4R)-1-(4-((1-(5-Ethoxy-2-fluorophenyl)piperidin-4-yl)oxy)-2-fluorophenyl)-4-methoxy-3-methylpyrrolidin-2-yl)acetic acid]
19 | 290 | COc1ccc(F)c(N2CCC(N(C)c3ccc(N4C[C@H](C(F)(F)F)C[C@@H]4CC(=O)O)cc3)CC2)c1 [Example 9, 2-((2R,4R)-1-(4-((1-(2-Fluoro-5-methoxyphenyl)piperidin-4-yl)(methyl)amino)phenyl)-4-(trifluoromethyl)pyrrolidin-2-yl)acetic acid, TFA]
20 | 210 | COc1cc(N2CCC(Oc3ccc(N4C[C@H](C(F)(F)F)C[C@@H]4CC(=O)O)cc3)C(F)C2)c(Cl)cn1 (single isomer, unassigned) [Example 28, Isomer 2, HCl]
21 | 110 | COc1cc(N2CCC(Oc3ccc(N4C[C@H](OC)[C@@H](C)[C@@H]4CC(=O)O)cn3)CC2)c(Cl)cn1 [Example 97, 2-((2S,3S,4R)-1-(6-((1-(5-Chloro-2-methoxypyridin-4-yl)piperidin-4-yl)oxy)pyridin-3-yl)-4-methoxy-3-methylpyrrolidin-2-yl)acetic acid]
22 | 110 | COc1cc(N2CCC(Oc3ncc(N4C[C@H](F)[C@@H](C)[C@@H]4CC(=O)O)cc3F)C(C)C2)c(Cl)cn1 (stereo partly drawn) [Example 164, 2-((2S,3S,4R)-1-(6-(((3,4-trans)-1-(5-Chloro-2-methoxypyridin-4-yl)-3-methylpiperidin-4-yl)oxy)-5-fluoropyridin-3-yl)-4-fluoro-3-methylpyrrolidin-2-yl)acetic acid]
23 | 45 | COc1cc(N2CCC(Oc3ncc(N4C[C@H](OC)[C@@H](C)[C@@H]4CC(=O)O)cc3OC(C)C)C(C)C2)c(Cl)cn1 (stereo partly drawn) [Example 167, 2-((2S,3S,4R)-1-(6-(((3,4-trans)-1-(5-Chloro-2-methoxypyridin-4-yl)-3-methylpiperidin-4-yl)oxy)-5-isopropoxypyridin-3-yl)-4-methoxy-3-methylpyrrolidin-2-yl)acetic acid]
